Assay results as given in patent US20130090305A1, “METHOD USING A DIETARY SUPPLEMENT FOR HEALING OR REGRESSING SYMPTOMS OF GASTROESOPHAGEAL REFLUX DISEASE, GASTRITIS AND ULCERS” (priority 2006, published 2013).

What was measured:
[1] = test system: chronic GERD, ulcer of 6 cm in the esophagus; assay: Case of a patient with chronic GERD and a 6 cm esophageal ulcer; format: in vivo, human; settings: before the formulation; regurgitation and heartburn
gastric acid secretion = settings: cited from earlier work
[2] = test system: spontaneous gastric ulcers; settings: 4-week administration in the diet, young pigs; cited from earlier work
[3] = test system: nitric oxide biosynthesis; settings: cited from earlier work

SMILES | relief of symptoms with earlier treatments [1] | action on gastric acid secretion (gastric acid secretion) | incidence of spontaneous gastric ulcers [2] | effect on nitric oxide biosynthesis [3]
O=C([O-])O.[Na+] [baking soda] | Neither treatment produced even partial relief | – | – | –
COc1ccc2[nH]cc(CCNC(C)=O)c2c1 [melatonin, N-Acetyl-5-methoxytryptamine] | – | inhibitory action | significantly reduced | inhibits
